Results published in US9687552B2, “Association of poly(N-acryloylglycinamide) with at least one active principle” (CENTRE NATIONAL DE LA RECHERCHE SCIENTIFIQUE, priority 2012, dated 2017).

Legend:
[1] = release of drug models from PAG hydrogel into physiological serum at 37° C. (UV spectrometry); type: physicochemical
Protocol: 60 mg of PAG polymer of molecular mass equal to 170 000 g/mol are placed in contact with 1 mil of physiological serum (6% by mass) in a small, hermetically scaled cylindrical flask and heated at 60° C. for a few minutes to obtain a clear, homogeneous solution, which is gelled by cooling.
The cycle is repeated twice to perfect the homogeneity of the gel.
10 mg of the compound chosen as drug model are added. The mixture is heated to have a homogeneous solution, which is left to cool to obtain the compound-gel system.
The flask is placed in a mobile incubator at 37° C. after having added on top of the gel formed 1 ml of physiological serum, into which the compound trapped in the hydrogel gradually diffuses. The receiving medium is then renewed at regular intervals and the compound that has diffused is evaluated quantitatively by UV spectrometry. The curve of gradual release is plotted as a percentage of the amount initially placed in the gel.

[2] = tested on: tissues and organs of the intraperitoneal cavity in mice; assay: delivery of methylene blue from PAG hydrogel to tissues and organs of the intraperitoneal cavity in mice; type: in vivo
Protocol: The delivery of the dye from the charged hydrogel to the tissues and organs of the intraperitoneal cavity in mice is observed.
To do this, an isotonic solution of PAG (molar mass equal to about 176 000 g/mol, 6% by weight of PAG) containing methylene blue (4 ml of solution (20 mg of dye) per 16 ml of gel) formed at 60° C. conditioned is introduced into heated syringes to be injected rapidly at 45° C. through a 23-gauge needle in order to fill the intraperitoneal cavity of the mice.
The mice treated according to the regulatory procedures were sacrificed after 2 hours, 8 hours, 24 hours, 30 hours and 52 hours (two animals per point).
After opening the abdomen, the distributions of the blue color in the gel, the tissues and the organs were assessed visually and compared at the same times with those observed for the control mice which received by similar injection an isotonic solution of the same concentration of methylene blue.

Compound | extent of release from the gel ([1]; 10 mg in PAG 170 000 g/mol gel, 6% by mass in physiological serum, 37° C.) | "burst" release as percentage of the amount initially placed in the gel ([1]; at 1 hour, 10 mg in PAG 170 000 g/mol gel, 6% by mass in physiological serum, 37° C.) | dissolution in the same medium without gel ([1]; physiological serum, without gel) | time after which the blue color totally disappeared ([2]; control mice: isotonic solution of the same concentration without PAG, intraperitoneal injection) | time the gel, tissues and organs, especially the liver, remained colored ([2]; in isotonic PAG solution (about 176 000 g/mol, 6% by weight), injected at 45° C. intraperitoneally, mice)
CC(=O)[O-].CC(=O)[O-].[Co+2] [cobalt acetate] | gradual release until depletion is complete | less than 15% | dissolves instantaneously in its entirety | – | –
CN(C)c1ccc2nc3ccc(=[N+](C)C)cc-3sc2c1 [methylene blue] | – | – | – | 24 h | at least 52 hours
